# Measurements reported in patent publication US20230137849A1, “USE OF A COMPOUND OF THE DIURETICS CLASS FOR TREATING CANCER” (AZELEAD, priority 2017, published 2023).
# Tests used:
# 4T1 cells = type: cell-based, mouse; conditions: highest dose 100 μM, FIG. 8
# Method: The cytotoxicity tests are carried out in cell culture in 96-well plates, on the 4T1 cell line. The cells are maintained in a DMEM culture medium supplemented with 10% fetal calf serum (control condition) or placed in the presence of an MTT solution (3-(4,5-dimethylthiazol-2-yl)-2,5-diphenyl tetrazolium bromide) at 1 mg/ml in DMEM medium supplemented with 10% fetal calf serum (100 μl per well). The cells are incubated at 37° C. and 5% CO2 for 4 hours. The reaction is stopped by the addition of 100 μl of a solution containing 10% of SDS and 0.01 M of HCl. The cells are placed in an incubator at 37° C. and 5% CO2 for 2 hours. The absorbance is measured between 570 and 590 nm. The negative control is performed on a well without cells, containing 200 μl of a 1 mg/ml solution of MTT diluted in DMEM culture medium supplemented with 10% fetal calf serum. The average of the measurements obtained is compared with the control wells: (average value of the compounds treated/average value of the controls)*100=% of the average value.
# The 4T1 cells are derived from tumors of the mammary gland in mice.
# In order to study the cytotoxic effects of althiazide in vitro, we analyze the cell death induced by treatment with althiazide by tetrazolium salt labeling MTT (3-(4,5-dimethylthiazol-2-yl)-2,5-diphenyltetrazolium bromide) on 4T1 cells. The amount of living cells in the well is assayed by spectrometry. The results are compared with those obtained after treatment with the control solution (FIG. 8). In this test, we observe a very low mortality of cells after treatment with althiazide (80% of living cells at the highest dose 100 μM). Cells treated with dasatinib have a much higher mortality rate, at much lower doses (80% live cells at the lowest 10 nM dose and 20% live cells at 100 μM).
# zebrafish embryo = conditions: in vivo, 24 h, 1 mM
# Method: The toxicity study is carried out over 72 hours. The embryos are treated at 25 hpf with the doses used for the test of chemical compounds of each of the compounds, in a 96-well plate, in a final volume of 100 μl of the embryonic growth medium. The embryos are incubated 72 h at 28° C. The medium is changed every 24 hours. The survival rate of embryos and the appearance of developmental defects are analyzed daily.
# At the same time, we analyzed the toxicity of althiazide after balancing with a solution containing althiazide at concentrations of 1 μM, 10 μM, 100 μM, 1000 μM for 24, 48 and 72 hours. The toxicity study was based on analysis of the percentage viability of the embryos after treatment. At concentrations of 1 μM, 10 μM and 100 μM, althiazide causes no toxicity even after 72 hours of treatment. A 50% toxicity is observed after treatment for 24 hours, the althiazide at the concentration of 1 mM.
# ZEB1 = experiment: q-RT-PCR expression of EMT markers in MDA-MB-231 cells under hypoxia: ZEB1; type: cell-based, human; conditions: althiazide 100 μM, hypoxic conditions (1% O2), vs control, FIG. 11
# Method: The cell cultures are carried out on human breast cancer epithelial cell lines MDA-MB-231 (HTB-26™), resulting from metastases present in a pleural effusion of a patient with a mammary adenocarcinoma. This line is used as a triple negative cancer cell model (no expression of ER-type nuclear estrogen receptors, nuclear progesterone receptors or overexpression of the oncogene encoding HER2 protein (Human Epidermal Growth factor Receptor-2).
# The cells were cultured in DMEM medium (Eurobio, Fance) supplemented with 10% fetal calf serum (FCS) (Eurobio, Fance) at 37° C., 5% CO2. The medium was changed every 3 days.
# The cells were placed in a controlled atmosphere at 1% oxygen 24 hours before the application of the different treatments.
# The expression of the mRNAs is measured by the q-RT-PCR method. The cells were seeded at the density of 500,000 cells/well in 6-well plates. After 24 hours at 37° C., 5% CO2 and 1% O2, the medium was renewed and added the various treatments. RNA was isolated using TRI Reagent® (sigma), assayed and retro-transcribed into complementary DNA using the PrimeScript RT Reagent Kit (Takara). The expression levels of the mRNA of the genes of interest were determined by quantitative PCR (LightCycler® 480 Instrument II) with the primers listed in Table 2: […]
# The results are calculated using the Delta Delta Ct (Δ ΔCt) method.
structure (smiles),measurement,setting,value
C=CCSCC1Nc2cc(Cl)c(S(N)(=O)=O)cc2S(=O)(=O)N1 (racemic) [althiazide],living cells (MTT),4T1 cells,80%
same,toxicity (percentage viability of the embryos),zebrafish embryo,50%
same,change in expression of ZEB1,ZEB1,−14%
